Key:
[1] = test system: semi-synthetic tbpA aptamer (residues 1-89 + 3' anchoring sequence) (RNA, riboswitch, azide-modified U at 14 (clicked to Cy5)) GUUCUCAACGGGGUGCCACGCGUACGCGUGCGCUGAGAAAAUACCCGUCGAACCUGAUCCGGAUAACGCCGGCGAAGGGAUUUGAGGCUCCCCGGCCCCCCGGCC; assay: smFRET (TIRF); settings: 20 mM MgCl2, 20 mM NaCl; 1 mM TPP; folded state 14% to 48%; Tris-HCl buffer, pH 7.5
30S ribosomal subunit = assay: toeprint (primer extension); settings: tRNA-fMet, with TPP; Toeprint buffer, salt, pH and temperature not given in the material; scale: fold decrease of toeprint efficiency vs no TPP

| Compound | binding [1] | binding signal (30S ribosomal subunit) |
| --- | --- | --- |
| Cc1ncc(C[n+]2csc(CCOP(=O)(O)OP(=O)(O)O)c2C)c(N)n1 | yes |  |
| tbpA riboswitch nascent transcript (toeprint) |  | 2.2 |

— article PMC11487190 (2024)
